Counter-ions that a name gives are not always drawn.

The text below walks through data of patent US5614555A, “Amidinophenol derivatives” (Ono Pharmaceutical Co., Ltd., priority 1992, dated 1997).

Assay [1] has as its target T1, trypsin (derived from bovine pancreas) (Bos taurus, UniProt P00760).
T1 construct: from tissue; host or cells: bovine pancreas
T1 sequence (P00760 24-246): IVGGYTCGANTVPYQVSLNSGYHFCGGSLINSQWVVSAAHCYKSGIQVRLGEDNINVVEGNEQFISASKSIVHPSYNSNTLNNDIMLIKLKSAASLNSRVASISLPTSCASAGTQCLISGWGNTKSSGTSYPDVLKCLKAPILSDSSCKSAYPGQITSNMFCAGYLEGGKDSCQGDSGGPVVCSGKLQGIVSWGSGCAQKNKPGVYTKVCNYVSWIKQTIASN
The assay is described as follows: Inhibitory activity on trypsin. The assay is classed as biochemical. The following applies: pH8.0, preincubated one minute at 30° C., BAPNA substrate, 30 min, absorbance at 405 nm. As for the experimental part:
To a mixture of a 0.2M HEPES.sodium hydroxide buffer solution (pH8.0, 100 μl ) and distilled water (640 μl), were added a test compound in various concentration or water (10 μl), and a solution of 80 mU/ml trypsin (derived from bovine pancreas) (50 μl) and then the mixture was preincubated for one minute at 30° C. To the solution thus obtained was added 2.5 mM BAPNA (200 μl) and the mixture was incubated for 30 min. The absorbance at 405 nm was measured. Percentage (%) of the absorbance in the presence of a test compound was calculated when the absorbance in the absence thereof was regarded as 100%, and therefrom IC50 value was calculated.
HEPES represents 4-(2-hydroxyethyl)-1-piperazineethanesulfonic acid, and
BAPNA represents a-N-benzoyl-DL-arginine-p-nitroanilide hydrochloride.

The next assay has as its system PLA2. Conditions: Japan. J. Pharmacol., 52, 23-34, 1990; cited from earlier work.
Assay [2] addresses T2, PLA2 (derived from hog pancreas) (Sus scrofa, UniProt P00592).
T2 construct: from tissue; host or cells: hog pancreas
The assay is described as follows: Inhibitory activity on PLA2. It counts as biochemical. Conditions: pH7.5, 10PY-PC substrate, fluorescence Ex=345 nm, Em=396 nm. Here is the method: A reaction solution including 50 mM tris-HCl buffer (pH7.5, 874 μl; containing 100 mM sodium chloride, 1 mM EDTA), 1M calcium chloride (6 μl), 1% bovine serum albumin (10 μl) and 2.5 mM 10PY-PC (10 μl), was prepared. To the solution were added a test compound in various concentration or water (50 μl), and a solution of 10 mU/ml PLA2 (derived from hog pancreas)(50 μl). The appearance of fluorescence was measured (Ex=345 nm, Em=396 nm). Percentage (%) of the strength of fluorescence in the presence of a test compound was calculated when the strength of that in the absence thereof was regarded as 100%, and therefrom IC50 value was calculated.
10PY-PC represents 3'-palmitoyl-2-(1 -pyrenedecanoyl)-L-α-phosphatidycholine, […]

T2 sequence (P00592 23-146): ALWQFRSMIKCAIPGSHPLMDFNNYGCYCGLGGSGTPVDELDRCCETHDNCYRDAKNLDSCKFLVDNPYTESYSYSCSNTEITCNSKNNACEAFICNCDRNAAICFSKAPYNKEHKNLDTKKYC

On to `C=CCN(CC(=O)O)C(=O)/C(C)=C/c1ccc(C(=O)Oc2ccc(C(=N)N)cc2)cc1` [Example 4, p-(p-Amidinophenoxycarbonyl)-α-methylcinnamic acid N-carboxymethyl-N-allylamide methanesulfonate], for which the IC50 – broadly, the concentration at which inhibition is half-maximal – in assay [1] is 0.1 µM.
With `CN(C)C(=O)COC(=O)Cc1ccc(OC(=O)c2ccc(NC(=N)N)cc2)cc1` [camostat mesylate], the “inhibitory activity on PLA2 (in words)” value in the assay with PLA2 is given as “having an inhibitory activity on PLA2”.
Turning to `N=C(N)c1ccc(OC(=O)c2ccc(C(=O)N3CCC[C@@H]3C(=O)OCc3ccccc3)cc2)cc1` [2(f), p-(p-amidinophenoxycarbonyl)benzoic acid-N-(2-(R)-benzyloxycarbonyl)pyrrolidinylamideacetic acid], the 50% inhibitory concentration (IC50) came to 32 µM in assay [2] and 0.14 µM in assay [1].
Consider `C=CCN(CC(=O)OCC)C(=O)/C(C)=C/c1ccc(C(=O)Oc2ccc(C(=N)N)cc2)cc1` [1(i), p-(p-amidino-phenoxycarbonyl)-α-methylcinnamicacid N-allyl-N-ethoxycarbonylmethylamideacetate], for which the IC50 was 28 µM in assay [2] and 0.13 µM in assay [1].
With `CCOC(=O)CN(C(=O)/C=C(\C)c1ccc(C(=O)Oc2ccc(C(=N)N)cc2)cc1)c1ccccc1` [1(k), p-(p-amidino-phenoxycarbonyl)-β-methylcinnamicacid N-phenyl-N-ethoxycarbonyl-methylamidehydrochloride], the IC50 in assay [2] was found to be 3.1 µM; in assay [1], 0.22 µM.
Regarding `CCOC(=O)CN(C(=O)/C(C)=C/c1ccc(C(=O)Oc2ccc(C(=N)N)cc2)cc1)c1ccc(F)cc1` [1(g), p-(p-amidino-phenoxycarbonyl)-α-methylcinnamicacid N-(p-fluoro-phenyl)-N-ethoxy-carbonylmethyl-amidemethanesulfonate], the IC50 turned out to be 5.3 µM in assay [2] and 0.14 µM in assay [1].
In turn, `CCOC(=O)CN(C(=O)c1ccc(C(=O)Oc2ccc(C(=N)N)cc2C(=O)OC)cc1)c1ccccc1` [1(p), p-(p-amidino-o-methoxycarbonyl-phenoxycarbonyl)-benzoic acid N-phenyl-N-ethoxy-carbonylmethyl-amide acetate] gave a half-maximal inhibitory concentration (IC50) in assay [1] of 0.15 µM.
Turning to `N=C(N)Nc1ccc(C(=O)Oc2ccc3cc(C(=N)N)ccc3c2)cc1` [nafamostat mesilate], in the assay on PLA2, the “inhibitory activity on PLA2 (in words)” value was “having an inhibitory activity on PLA2”.
With `N=C(N)c1ccc(OC(=O)c2ccc(C(=O)N3CCN(Cc4ccccc4)CC3)cc2)cc1` [1(t), p-(p-amidino-phenoxycarbonyl)-benzoic acid N'-phenylmethyl-piperazinylamidedihydrochloride], the IC50 amounted to 24 µM in assay [2] and 0.22 µM in assay [1].
Consider `CCOC(=O)CN(Cc1ccccc1)C(=O)/C(C)=C/c1ccc(C(=O)Oc2ccc(C(=N)N)cc2)cc1` [Example 1, p-(p-Amidinophenoxycarbonyl)-α-methylcinnamic acid N-ethoxycarbonylmethyl-N-phenylmethylamide hydrochloride], for which the IC50 was 4.8 µM in assay [2] and 0.14 µM in assay [1].
With `CCOC(=O)CC[C@H](NC(=O)/C(C)=C/c1ccc(C(=O)Oc2ccc(C(=N)N)cc2)cc1)C(=O)OCC` [1(d), p-(p-amidino-phenoxycarbonyl)-α-methylcinnamicacid N-[1-(S),3-bis-(ethoxycarbonyl)]-propylamidehydrochloride], the IC50 amounted to 63 µM in assay [2] and 0.13 µM in assay [1].
With `CCOC(=O)CN(C(=O)/C=C/c1ccc(C(=O)Oc2ccc(C(=N)N)cc2)cc1)c1ccccc1` [Example 2(a), p-(p-amidinophenoxycarbonyl)cinnamic acid-N-phenyl-N-ethoxycarbonylmethyl amidehydrochloride], the IC50 was found to be 15 µM in assay [2] and 0.14 µM in assay [1].
